Experimental data reported in ChEMBL document CHEMBL1201862, “PubChem BioAssay data set” (2004).
Calls of active or inactive are those of the source.

What was measured:
[1] = target: T1, Sentrin-specific protease 6 (Homo sapiens, UniProt Q9GZR1); format: functional;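 also: Luminescence-based dose-response confirmatory assay of SENP6 inhibition, following up an ultra-high-throughput screen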
T1 sequence (Q9GZR1 whole entry): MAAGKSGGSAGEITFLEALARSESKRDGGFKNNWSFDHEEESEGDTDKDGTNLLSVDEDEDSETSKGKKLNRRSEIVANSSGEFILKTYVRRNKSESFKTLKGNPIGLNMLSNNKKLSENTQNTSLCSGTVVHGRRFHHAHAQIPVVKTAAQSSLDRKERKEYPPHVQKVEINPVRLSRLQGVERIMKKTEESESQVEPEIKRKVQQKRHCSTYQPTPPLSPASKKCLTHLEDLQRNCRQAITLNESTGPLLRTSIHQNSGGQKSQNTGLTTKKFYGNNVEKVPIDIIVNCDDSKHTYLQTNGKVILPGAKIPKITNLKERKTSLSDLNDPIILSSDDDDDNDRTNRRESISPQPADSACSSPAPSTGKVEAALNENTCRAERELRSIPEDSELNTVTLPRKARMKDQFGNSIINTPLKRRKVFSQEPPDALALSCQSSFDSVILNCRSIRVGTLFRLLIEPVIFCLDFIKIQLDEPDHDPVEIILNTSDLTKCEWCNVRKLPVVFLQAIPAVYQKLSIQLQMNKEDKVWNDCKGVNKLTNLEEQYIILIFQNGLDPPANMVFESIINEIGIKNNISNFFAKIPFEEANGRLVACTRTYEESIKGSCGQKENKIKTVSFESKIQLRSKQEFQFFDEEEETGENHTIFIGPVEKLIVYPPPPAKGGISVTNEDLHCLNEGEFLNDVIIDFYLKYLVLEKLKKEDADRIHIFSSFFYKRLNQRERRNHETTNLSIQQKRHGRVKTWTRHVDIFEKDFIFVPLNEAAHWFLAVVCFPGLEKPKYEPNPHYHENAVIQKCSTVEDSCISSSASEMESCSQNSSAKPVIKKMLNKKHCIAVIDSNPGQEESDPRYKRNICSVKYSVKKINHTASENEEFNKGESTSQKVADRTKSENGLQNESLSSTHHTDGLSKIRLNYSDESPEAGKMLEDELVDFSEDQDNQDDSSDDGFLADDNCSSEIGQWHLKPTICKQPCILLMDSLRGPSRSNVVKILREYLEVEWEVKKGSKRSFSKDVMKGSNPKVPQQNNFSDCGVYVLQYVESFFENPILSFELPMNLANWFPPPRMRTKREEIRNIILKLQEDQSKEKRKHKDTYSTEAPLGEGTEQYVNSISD

Aminopeptidase N = target: T2, Aminopeptidase N (Plasmodium falciparum FcB1/Columbia, UniProt O96935); assay: malaria alanyl aminopeptidase activity blockers – biochemical, fluorogenic H-Leu-NHMec substrate, 1536-well (AID 1445); design: species or system Plasmodium falciparum 3D7, 3D7
T2 sequence (O96935 whole entry): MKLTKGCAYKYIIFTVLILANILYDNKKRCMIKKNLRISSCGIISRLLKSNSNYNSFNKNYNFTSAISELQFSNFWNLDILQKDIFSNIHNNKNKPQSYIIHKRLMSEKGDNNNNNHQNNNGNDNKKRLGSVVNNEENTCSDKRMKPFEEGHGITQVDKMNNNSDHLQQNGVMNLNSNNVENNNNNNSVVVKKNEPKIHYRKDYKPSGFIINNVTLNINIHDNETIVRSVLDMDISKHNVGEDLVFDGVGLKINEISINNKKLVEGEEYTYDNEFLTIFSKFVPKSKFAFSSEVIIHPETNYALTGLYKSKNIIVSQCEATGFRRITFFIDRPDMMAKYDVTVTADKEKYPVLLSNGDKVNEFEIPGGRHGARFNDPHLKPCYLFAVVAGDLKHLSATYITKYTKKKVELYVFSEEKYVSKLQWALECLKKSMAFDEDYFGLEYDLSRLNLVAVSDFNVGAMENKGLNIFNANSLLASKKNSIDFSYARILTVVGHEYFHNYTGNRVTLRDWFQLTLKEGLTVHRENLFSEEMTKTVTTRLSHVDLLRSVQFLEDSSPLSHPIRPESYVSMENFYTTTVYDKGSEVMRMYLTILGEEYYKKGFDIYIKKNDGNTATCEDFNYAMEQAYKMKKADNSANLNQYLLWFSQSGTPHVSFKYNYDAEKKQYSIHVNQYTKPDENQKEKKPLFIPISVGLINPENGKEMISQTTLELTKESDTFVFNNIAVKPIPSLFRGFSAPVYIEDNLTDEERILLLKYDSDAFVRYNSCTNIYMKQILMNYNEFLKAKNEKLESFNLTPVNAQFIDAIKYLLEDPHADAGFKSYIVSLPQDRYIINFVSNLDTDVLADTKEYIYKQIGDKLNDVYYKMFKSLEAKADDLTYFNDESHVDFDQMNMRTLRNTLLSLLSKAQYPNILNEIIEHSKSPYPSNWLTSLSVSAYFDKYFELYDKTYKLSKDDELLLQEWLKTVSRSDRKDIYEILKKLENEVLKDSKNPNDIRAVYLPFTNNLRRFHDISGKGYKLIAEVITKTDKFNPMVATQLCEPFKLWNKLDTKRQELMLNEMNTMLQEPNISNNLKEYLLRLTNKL

Protein RecA = target: T3, Protein RecA (Mycobacterium tuberculosis, UniProt P9WHJ3); assay: Fluorescence Cell-Free Homogeneous Dose Retest to Identify Inhibitors of RecA-Intein Splicing Activity. [Related pubchem assays (depositor defined):AID2097, AID2223, AID489010, AID492950]; format: functional
T3 sequence (P9WHJ3 whole entry): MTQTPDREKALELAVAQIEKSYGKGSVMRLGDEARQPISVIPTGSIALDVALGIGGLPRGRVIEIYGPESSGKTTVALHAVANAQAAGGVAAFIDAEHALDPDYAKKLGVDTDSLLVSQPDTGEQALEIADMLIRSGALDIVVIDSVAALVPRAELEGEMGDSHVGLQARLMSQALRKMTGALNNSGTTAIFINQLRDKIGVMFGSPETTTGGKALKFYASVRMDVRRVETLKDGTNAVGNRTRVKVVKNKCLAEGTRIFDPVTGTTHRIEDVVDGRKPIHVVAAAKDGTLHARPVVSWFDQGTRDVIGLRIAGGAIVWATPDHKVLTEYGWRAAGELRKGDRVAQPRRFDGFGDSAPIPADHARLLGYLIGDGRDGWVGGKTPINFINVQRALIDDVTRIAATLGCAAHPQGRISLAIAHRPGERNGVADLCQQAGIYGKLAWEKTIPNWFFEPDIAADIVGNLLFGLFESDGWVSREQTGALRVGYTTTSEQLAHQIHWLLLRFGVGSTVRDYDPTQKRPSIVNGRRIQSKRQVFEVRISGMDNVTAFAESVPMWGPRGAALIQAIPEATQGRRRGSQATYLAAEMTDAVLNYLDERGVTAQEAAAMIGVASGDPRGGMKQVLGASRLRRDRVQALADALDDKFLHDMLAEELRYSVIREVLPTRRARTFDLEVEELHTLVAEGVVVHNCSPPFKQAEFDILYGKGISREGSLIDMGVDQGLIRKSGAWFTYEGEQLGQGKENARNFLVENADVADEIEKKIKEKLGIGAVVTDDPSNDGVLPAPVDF

| Compound | IC50 [1] | IC50 (Aminopeptidase N) | EC50 (Protein RecA) |
| --- | --- | --- | --- |
| c1ccc2c(Nc3nnc(-c4ccncc4)s3)cccc2c1 | 10.1 µM (active) | – | – |
| N#Cc1c(O)nc(SCC(=O)N2c3ccccc3Sc3ccccc32)nc1-c1ccccc1 | – | 11.2 µM (active) | 9.18 µM (active) |
| COc1cc(C(=O)c2nccc3cc(OC)c(OC)cc23)c([N+](=O)[O-])cc1OC | 0.936 µM (active) | – | 0.16 µM (active) |
| N=C1S/C(=C\c2ccc(-c3ccccc3C(=O)O)o2)C(=O)N1c1ccc2c(c1)OCO2 | – | 10.3 µM (active) | – |
